Assay results taken from patent US9718790B2, “Triazine derivative and pharmaceutical composition having an analgesic activity comprising the same” (SHIONOGI & CO., LTD., priority 2010, dated 2017).
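Further: stimulus was 50 nM ATP with fluorescence followed for 3 min, and the response per well was peak post-ATP fluorescence divided by the reading at measurement start.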

These molecules were tested against human P2X3 receptor (Homo sapiens (Human), UniProt P56373) (assay: Evaluation of human P2X3 receptor inhibitory activity (Fluo-3 calcium fluorescence, FDSS 3000, ATP stimulation)). Conditions: C6BU-1 cells stably expressing human P2X3 receptor.
Chain of human P2X3 receptor (P56373 whole entry): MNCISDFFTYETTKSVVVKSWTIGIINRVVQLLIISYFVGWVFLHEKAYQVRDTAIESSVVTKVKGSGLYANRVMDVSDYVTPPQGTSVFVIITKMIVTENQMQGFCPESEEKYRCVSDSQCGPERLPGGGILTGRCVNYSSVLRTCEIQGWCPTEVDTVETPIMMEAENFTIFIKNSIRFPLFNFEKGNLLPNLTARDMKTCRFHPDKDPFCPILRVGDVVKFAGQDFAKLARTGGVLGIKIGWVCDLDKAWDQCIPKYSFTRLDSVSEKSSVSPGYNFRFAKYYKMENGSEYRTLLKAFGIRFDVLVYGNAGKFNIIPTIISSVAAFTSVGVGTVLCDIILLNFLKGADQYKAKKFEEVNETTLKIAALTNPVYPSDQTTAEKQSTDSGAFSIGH
Type: cell-based
For Cc1[nH]c2ccc(/N=c3\[nH]c(=O)n(CC(CO)CO)c(=O)n3Cc3ccc(Cl)cc3)cc2c1C [Compound I-1935], the IC50 was 9 nM. CCn1c(=O)[nH]/c(=N\c2ccc(Oc3ccc(S(N)(=O)=O)cc3)cc2)n(Cc2ccc(Cl)cc2)c1=O [Compound I-1993] gave an IC50 of 6 nM. With COC(=O)[C@@H](C)Cn1c(=O)[nH]/c(=N\c2ccc(OCC(C)C)cc2)n(Cc2ccc(C)cc2)c1=O [Compound I-0812] the IC50 was 33 nM. COC(=O)[C@@H](C)Cn1c(=O)[nH]/c(=N\c2ccc(CCO)cc2)n(Cc2ccc(Cl)cc2)c1=O [Compound I-0657] was tested, and the IC50 was 471 nM. CCn1c(=O)[nH]/c(=N\c2ccc(Oc3cccc(C(N)=O)c3)cc2)n(Cc2ccc(Cl)cc2)c1=O [Compound I-1925] was tested, and the IC50 was 6 nM. CCOC(=O)CCn1c(=O)[nH]/c(=N\c2ccc(OC(C)C)c(Cl)c2)n(CC2CCC3(CC2)CC3)c1=O [Compound I-1449] showed an IC50 of 4 nM. Molecule CC(C)Oc1ccc(/N=c2\[nH]c(=O)n(C[C@H](C)C(=O)O)c(=O)n2Cc2ccc(F)cc2)cc1 [Compound I-0639] has an IC50 of 216 nM. With Cc1ccc(Cn2c(=O)n(CCC(=O)O)c(=O)[nH]/c2=N\c2cccc(C(F)(F)F)c2F)cc1 [Compound I-2086] the IC50 was 234 nM. For CCC(Cn1c(=O)[nH]/c(=N\c2ccc(OC(C)C)c(C)c2)n(Cc2ccc(Cl)cc2)c1=O)C(=O)OC(C)(C)C (stereo not shown) [Compound I-0701], the IC50 was 35 nM. Molecule COc1cc(/N=c2\[nH]c(=O)n(C[C@H](C)C(=O)O)c(=O)n2Cc2ccc(C)cc2)ccc1Br [Compound I-1244] has an IC50 of 473 nM. With CC1(C)OCC(Cn2c(=O)[nH]/c(=N\c3ccc(OC4CCC4)cc3)n(Cc3ccc(Cl)cc3)c2=O)CO1 [Compound I-1965] the IC50 was 3 nM. COC(=O)[C@H](C)Cn1c(=O)[nH]/c(=N\c2ccc(OC(C)C)c(C)c2)n(CC2CCCCC2)c1=O [Compound I-0631] was tested, and the IC50 was 10 nM. Molecule CCOC(=O)CCn1c(=O)[nH]/c(=N\c2ccc(CC(C)C)c(C)c2)n(Cc2ccc(C)cc2)c1=O [Compound I-1216] has an IC50 of 13 nM. Cc1ccc(Cn2c(=O)n(C[C@H](C)C(=O)O)c(=O)[nH]/c2=N\c2ccc3oc(C)cc3c2)cc1 [Compound I-0681] gave an IC50 of 49 nM. For COC(=O)[C@H](C)[C@H](C)n1c(=O)[nH]/c(=N\c2ccc(Oc3ccc(C)nc3)cc2)n(Cc2ccc(Cl)cc2)c1=O [Compound I-1375], the IC50 was 5 nM. In the case of CNC(=O)CCCn1c(=O)[nH]/c(=N\c2ccc(OC(C)C)c(C)c2)n(Cc2ccc(Cl)cc2)c1=O [Compound I-0786], the IC50 is reported as 15 nM. In the case of CCn1c(=O)[nH]/c(=N\c2ccc(Oc3cccc(C(=O)O)n3)cc2)n(Cc2ccc(Cl)cc2)c1=O [Compound I-2095], the IC50 is reported as 5 nM. Cc1ccc(Cn2c(=O)n(C)c(=O)[nH]/c2=N\c2ccc(Oc3ccnc(CO)c3)cc2)cc1 [Compound I-2056] was tested, and the IC50 was 26 nM. For COc1cc(/N=c2\[nH]c(=O)n(C[C@H](O)CO)c(=O)n2Cc2ccc(Cl)cc2)ccc1OC(C)C [Compound I-2004], the IC50 was 13 nM. Work on CCn1c(=O)[nH]/c(=N\c2ccc(Oc3nccc(O)n3)cc2)n(Cc2ccc(Cl)cc2)c1=O [Compound I-2108] yielded an IC50 of 26 nM.

Same assay, conditions: C6BU-1 cells stably expressing human P2X3 receptor, Fluo-3 fluorescence, FDSS 3000
In the case of COC(=O)CCn1c(=O)[nH]/c(=N\c2ccccc2NC(C)=O)n(Cc2ccc(C)cc2)c1=O [Compound I-1892], the IC50 is reported as 113 nM. CC[C@@H](C)Oc1ccc(/N=c2\[nH]c(=O)n(C[C@H](C)C(=O)O)c(=O)n2Cc2ccc(C)cc2)cc1Cl [Compound I-1013] was tested, and the IC50 was 5 nM. Molecule CCOC(=O)CCn1c(=O)[nH]/c(=N\c2ccc(OC(C)C)c(F)c2)n(CC2CCC(F)(F)CC2)c1=O [Compound I-1884] has an IC50 of 296 nM. CC(=O)Nc1nc2ccc(/N=c3\[nH]c(=O)n([C@@H](C)[C@@H](C)C(=O)O)c(=O)n3Cc3ccc(Cl)cc3)cc2s1 [Compound I-1793] showed an IC50 of 984 nM. Molecule COC(=O)[C@@H](C)Cn1c(=O)[nH]/c(=N\c2ccc(OC3CCOCC3)nc2)n(Cc2ccc(C)cc2)c1=O [Compound I-1118] has an IC50 of 387 nM. In the case of COC(=O)[C@H](C)[C@H](C)n1c(=O)[nH]/c(=N\c2ccc(OC(C)C)c(Cl)c2)n(Cc2ccc(Cl)cc2)c1=O [Compound I-0917], the IC50 is reported as 19 nM. In the case of Cc1ccc(Cn2c(=O)n(C[C@H](C)C(=O)O)c(=O)[nH]/c2=N\c2ccc(Cl)c(Cl)c2)cc1 [Compound I-1004], the IC50 is reported as 85 nM. In the case of COC(=O)[C@@H](C)Cn1c(=O)[nH]/c(=N\c2ccc(OC(C)C)c(O)c2)n(Cc2ccc(C)cc2)c1=O [Compound I-1128], the IC50 is reported as 21 nM. In the case of CCCCCOc1ccc(/N=c2\[nH]c(=O)n(C[C@H](C)C(=O)O)c(=O)n2Cc2ccc(C)cc2)cc1 [Compound I-1065], the IC50 is reported as 85 nM. CC(C)=Cc1ccc(/N=c2\[nH]c(=O)n(C[C@H](C)C(=O)O)c(=O)n2Cc2ccc(C)cc2)cc1F [Compound I-1174] was tested, and the IC50 was 27 nM. With Cc1cc(/N=c2\[nH]c(=O)n(C3CCN(CC(=O)O)CC3)c(=O)n2Cc2ccc(Cl)cc2)ccc1OC(C)C [Compound I-1649] the IC50 was 285 nM. Cc1oc2ccc(/N=c3\[nH]c(=O)n(C[C@H](C)C(=O)O)c(=O)n3Cc3ccc(Cl)cc3)cc2c1C [Compound I-1653] was tested, and the IC50 was 14 nM. Cc1ccc(Cn2c(=O)n(CCC(=O)O)c(=O)[nH]/c2=N\c2ccc3nc(C(C)C)sc3c2)cc1 [Compound I-1563] was tested, and the IC50 was 31 nM. In the case of CCc1nc2ccc(/N=c3\[nH]c(=O)n(CCCO)c(=O)n3Cc3ccc(Cl)cc3)cc2s1 [Compound I-1622], the IC50 is reported as 4 nM. Molecule Cc1cc(/N=c2\[nH]c(=O)n(C3CNC3)c(=O)n2Cc2ccc(Cl)cc2)ccc1OC(C)C [Compound I-1709] has an IC50 of 167 nM. With COC(=O)[C@@H](O)Cn1c(=O)[nH]/c(=N\c2ccc(OC(C)C)c(C)c2)n(Cc2ccc(Cl)cc2)c1=O [Compound I-0994, (S)-1-(4-chlorobenzyl)-6-(3-mehyl-4-isopropoxyphenylimino)-3-(2-methoxycarbonyl-2-hydroxyethyl)-1,3,5-triazinane-2,4-dion] the IC50 was 20 nM. For C[C@@H](C(=O)O)[C@H](C)n1c(=O)[nH]/c(=N\c2ccc3oc(-c4ccccc4)nc3c2)n(Cc2ccc(Cl)cc2)c1=O [Compound I-1814], the IC50 was 299 nM. Work on COC(=O)[C@H](C)[C@H](C)n1c(=O)[nH]/c(=N\c2ccc(OCC3CC3)cc2)n(Cc2ccc(C)cc2)c1=O [Compound I-0965] yielded an IC50 of 21 nM. Cc1ccc(Cn2c(=O)n(C[C@H](C)C(=O)O)c(=O)[nH]/c2=N\c2cccc(C3=CCCC3)c2)cc1 [Compound I-1115] showed an IC50 of 516 nM.

Same assay, conditions: human P2X3 receptor, Test Example 1
Cc1ccc2cc(/N=c3\[nH]c(=O)n(C[C@H](C)C(=O)O)c(=O)n3Cc3ccc(Cl)cc3)ccc2n1 [Compound I-0864] was tested, and the IC50 was 35 nM. CCCOc1ccc(/N=c2\[nH]c(=O)n(C[C@H](CC)C(=O)OC)c(=O)n2Cc2ccc(Cl)cc2)cc1 [Compound I-0888] was tested, and the IC50 was 30 nM. CCn1c(=O)[nH]/c(=N\c2ccc(Oc3ncc(C(=O)O)s3)cc2)n(Cc2ccc(F)cc2)c1=O [Compound I-2567] showed an IC50 of 38 nM. O=c1[nH]/c(=N\c2ccc(Oc3ccon3)cc2)n(Cc2ccc(Cl)cc2)c(=O)n1C[C@@H](O)CO [Compound I-2408] gave an IC50 of 14 nM. Work on CCn1c(=O)[nH]/c(=N\c2ccc(Oc3ccc(C#N)cn3)cc2)n(Cc2ccc(Cl)cc2)c1=O [Compound I-2306] yielded an IC50 of 2 nM. Work on Cc1nsc(Oc2ccc(/N=c3\[nH]c(=O)n(C[C@H](O)CO)c(=O)n3Cc3ccc(Cl)cc3)cc2)n1 [Compound I-2518] yielded an IC50 of 4 nM. In the case of CCCOc1ccc(/N=c2\[nH]c(=O)n([C@H](C)CC(=O)O)c(=O)n2Cc2ccc(C)cc2)cc1Cl [Compound I-0880], the IC50 is reported as 49 nM. Molecule CCn1c(=O)[nH]/c(=N\c2ccc(Oc3ccc(C(N)=O)cn3)cc2)n(Cc2ccc(C)cc2)c1=O [Compound I-2398] has an IC50 of 3 nM. Work on CCc1oc2ccc(/N=c3\[nH]c(=O)n(CC4(C(=O)O)CC4)c(=O)n3Cc3ccc(Cl)cc3)cc2c1C [Compound I-1551] yielded an IC50 of 9 nM. For CCn1c(=O)[nH]/c(=N\c2ccc(Oc3cc(C(=O)O)n(C)n3)cc2)n(Cc2ccc(Cl)cc2)c1=O [Compound I-2491], the IC50 was 74 nM. For COCCn1c(=O)[nH]/c(=N\c2ccc(Oc3cncc(C(=O)OC)c3)cc2)n(Cc2ccc(Cl)cc2)c1=O [Compound I-2537], the IC50 was 5 nM. Work on Cc1ccc(Cn2c(=O)n(C)c(=O)[nH]/c2=N\c2ccc(Oc3ccc(C#N)cn3)cc2)cc1 [Compound I-2393] yielded an IC50 of 10 nM. Cc1ccc(Cn2c(=O)n(CCC(=O)O)c(=O)[nH]/c2=N\c2ccc(Oc3cc(C#N)ccn3)cc2)cc1 [Compound I-2661] gave an IC50 of 15 nM. Molecule CC(CO)(CO)Cn1c(=O)[nH]/c(=N\c2ccc(Oc3ccsn3)cc2)n(Cc2ccc(Cl)cc2)c1=O [Compound I-2531] has an IC50 of 4 nM. CC(=O)N(C)CCCn1c(=O)[nH]/c(=N\c2ccc(OC(C)C)c(F)c2)n(Cc2ccc(Cl)cc2)c1=O [Compound I-2317] showed an IC50 of 3 nM. With O=c1[nH]/c(=N\c2ccc(Oc3cccc(F)n3)cc2)n(Cc2ccc(Cl)cc2)c(=O)n1C[C@@H](O)CO [Compound I-2525] the IC50 was 10 nM. CCn1c(=O)[nH]/c(=N\c2ccc(Oc3ccnc(C(=O)NC)c3)c(OC)c2)n(Cc2ccc(Cl)cc2)c1=O [Compound I-2251] showed an IC50 of 5 nM. For Cn1c(=O)[nH]/c(=N\c2ccc(Oc3cncc(C(N)=O)n3)cc2)n(Cc2ccc(Cl)cc2)c1=O [Compound I-2471], the IC50 was 5 nM. In the case of Cn1c(=O)[nH]/c(=N\c2ccc(Oc3ccnc(C(=O)O)c3)c(F)c2)n(Cc2ccc(Cl)cc2)c1=O [Compound I-2461], the IC50 is reported as 7 nM. CCn1c(=O)[nH]/c(=N\c2ccc(Oc3ccc(C(=O)NC)nn3)cc2)n(Cc2ccc(Cl)cc2)c1=O [Compound I-2533] gave an IC50 of 4 nM. For O=c1[nH]/c(=N\c2ccc(Oc3nccs3)cc2)n(Cc2ccc(Cl)cc2)c(=O)n1CC(CO)CO [Compound I-2437], the IC50 was 6 nM. CCn1c(=O)nc(Nc2ccc(Oc3ccc(C(=O)O)nn3)cc2)n(Cc2ccc(F)cc2)c1=O [Compound I-2699] gave an IC50 of 134 nM. Molecule CCOC(=O)Cn1c(=O)[nH]/c(=N\c2ccc(Oc3ncns3)cc2)n(Cc2ccc(Cl)cc2)c1=O [Compound I-2628] has an IC50 of 4 nM. CNC(=O)CCn1c(=O)[nH]/c(=N\c2ccc(Oc3cccc(F)n3)cc2)n(Cc2ccc(Cl)cc2)c1=O [Compound I-2655] showed an IC50 of 5 nM. CCOc1c(Cl)cc(/N=c2\[nH]c(=O)n(C[C@H](C)C(=O)OC)c(=O)n2Cc2ccc(C)cc2)cc1Cl [Compound I-1499] gave an IC50 of 19 nM.
